Experimental data taken from paper PMC10108821, “Three tyrosine kinase inhibitors cause cardiotoxicity by inducing endoplasmic reticulum stress and inflammation in cardiomyocytes” (BMC Medicine, 2023).

Experiments:
Cor.4U hiPSC-CMs [1] = test: ATP level (CellTiter-Glo) in hiPSC-CMs; format: cell-based, human
Procedure: ATP content was measured using the CellTiter-Glo Luminescent Cell Viability Assay (Promega) following the manufacturer’s protocol. After adding CellTiter-Glo reagents and incubation, luminescence was quantified using a Synergy H1 plate reader (BioTek Instruments). ATP standards were prepared from 0.01 to 5 μM. For each drug, we fitted a four-parameter log-logistic model to calculate ED50 at day 5 (Fig S1). To rank the cellular toxicity of the eight TKIs (Fig 1T), we calculated (EC50-Cmax)/(EC50+Cmax) and arranged from the smallest to the biggest for increasing cellular toxicity.

HELP hiPSC-CMs = test: CardioExcyte 96 microelectrode array: base impedance and extracellular field potential; format: cell-based, human; details: fixed doses: 10 µM, crizotinib and ponatinib 3.16 µM; up to 24 h
Procedure: HELP hiPSC-CMs were seeded evenly into the 96-well microelectrode array, NSP-96 0.6mm sensor plate (Nanion technologies), at 50,000 cells per well. Measurements were started after 3-5 days of culture of these cells and until the impedance and the extracellular field potential are stable. Measurements were taken a few times before drug addition, and every 30~60 minutes after the drugs were added at 2x concentration. Values were averaged from 3 wells per group. Beat rate, amplitude of impedance, base impedance and FPDc were calculated by the Cardio Excyte Control 96 software package (Nanion Technologies).

NRCMs [2] = test: Seahorse assay: oxygen consumption and extracellular acidification; format: cell-based, rat; details: 24 h; fixed doses: 10 µM, crizotinib and ponatinib 3.16 µM
Procedure: (§1) Rats were euthanized by decapitation and thoracic cavity was opened with scissors and hearts were popped out of the opening gently with fingers. Hearts were clipped and put in HBSS immediately; 20–40 hearts were collected into one sterile vial containing a magnetic stir bar and 1 mL digestive media made of 0.1% trypsin (Macklin) and 0.05% collagenase (Gibco) in HBSS. Hearts were minced until they were uniform in size. Digestive media was added to 10 mL for 40 hearts and stirred gently for 6 min. Supernatant was discarded and the digestion was repeated once; 10 mL digestive media was added and stirred gently for 10 min. The supernatant with cells were collected and the digestion and collection were repeated 4 times. Cells were centrifuged at 1200 rpm for 5 min, resuspended in media (Dulbecco’s modified Eagleʼs medium (Gibco)) with 10% fetal bovine serum (FBS; VISTECH), 1% penicillin–streptomycin, and 1% 0.1 M 5-bromo-2-deoxyuridine solution (Shanghai Yuanye) and filtered through a 40-μm cell strainer. Cells were seeded on a 100-mm plastic dish and cultured in a 5% CO2 incubator at 37 °C for 2 h to allow non-myocytes to adhere to the plate. The dish was swirled and media gently pipetted up and down to detach lightly attached cardiomyocytes. The collected myocytes were seeded in the same media described before; 48 h after plating, medium was exchanged to fresh DMEM (Gibco) with or without 2% FBS. All drug treatments were performed after this media change.
NRCMs were seeded evenly into the Seahorse XF96 cell culture plates (Agilent) and cultured in DMEM high glucose with 2% FBS. About 2 hours before the test, cells were moved to a non-CO2 incubator at 37 ° C and incubated for 1 hour. 1 hour prior to the test, culture media was replaced with the Seahorse Basal DMEM at 37°C (with appropriate concentration of glucose, 4mM L-glutamine, 1 mM sodium pyruvate and 1% penicillin-streptomycin solution) and incubated in a non-CO2 incubator at 37°C for 1 hour. Drugs were prepared at 8x to 10x concentrations with the corresponding seahorse media as in each well and added into ports of Seahorse XF96 cartridge plates which have been hydrated overnight. XFe96 Extracellular Flux Analyzer (Agilent) was used to measure oxygen consumption rate and extracellular acidification rate of cells with different drug treatments.

ER stress genes in NRCMs = test: qRT-PCR of ER stress genes in NRCMs; format: cell-based, rat
Procedure: as §1, with “The collected myocytes were seeded in the same media described before; 48 h after plating, medium was exchanged to fresh DMEM (Gibco) with or without 2% FBS.” left out
RNA was isolated based on a standard protocol using TRIzol reagent (Vazyme). TRIzol (1ml per 1 well of a 6-well plate) was used to lyse cells and chloroform was added for RNA separation. Samples were shaked vigorously by hand for 15 seconds and incubated at room temperature for 2-3 minutes. RNA was present in the aqueous phase after centrifuge at 12000 x g for 15 minutes. Isopropyl alcohol was mixed to precipitate RNA from the aqueous phase. […] 1 μg total RNA was used for cDNA synthesis using a reverse transcription kit (Bioman). We then measured expression of genes of interest with SYBRR Green qPCR Mix (Bioman) using Applied Biosystems 7500 Quantitative PCR Instrument. Gene expression was normalized to the 18S ribosomal RNA expression and primers were listed in Primers Table.

[3] = tested on: Phospho-eIF2α, XBP1s, ATF6 (cleaved); test: Western blot of ER stress effectors in NRCMs; format: cell-based, rat
Procedure: Cells were homogenized in the RIPA lysis buffer (Applygen) containing protease and phosphatase inhibitor cocktails (Bimake). The extract was spun at 12,000xg for 20min at 4°C. Total protein was measured by BCA (Thermofisher) and resolved by sodium dodecyl sulfate–polyacrylamide gel electrophoresis (SDS-PAGE). Proteins were blotted to polyvinylidene difluoride membranes (Amersham). Blots were blocked with non-fat milk (BBI Life Sciences) and incubated with antibodies against ATF6 (proteintech), phospho-eIF2α (ABclonol), XBP1 (ABclonol) and GAPDH (proteintech). Goat anti-rabbit IgG, goat anti-mouse IgG were incubated with the blots for 1 hour at room temperature. After 3 washes with 1xTBST (50 mM Tris-Cl, 150 mM NaCl, 0.1% Tween 20, pH 7.5), the blots were developed with the ECL Plus Kit (Absin). Relative protein expression was quantified by optical density and normalized to GAPDH.

NRCMs [4] = test: ROS by H2DCFDA staining and flow cytometry; details: 3 h; 10 µM afatinib, 10 µM sorafenib, 5.62 µM ponatinib
Procedure: (§2) For ROS assessment, cells were washed with PBS once and stained with 10μM H2DCFHDA (MCE) in phenol red-free DMEM (Procell) in a humid incubator with 5% CO2 at 37°C for 30 minutes. Cells were washed with PBS twice and dissociated to single cells before flow cytometry analysis at the FITC channel. For lipid peroxidation measurement, cells were washed with PBS once and stained with 2μM C11-bodipy^581/591 (Cayman) in phenol red-free DMEM (Procell) in a humid incubator with 5% CO2 at 37°C for 30 minutes. Cells were washed with PBS twice and dissociated to single cells before flow cytometry analysis at both the FITC and the PE channels. Fluorescence of the oxidized C11-bodipy were acquired through the FITC channel (Ex/Em=488/520nm) and that of the non-oxidized C11-bodipy through the PE channel (Ex/Em=555/624nm).

NRCMs [5] = test: Lipid peroxidation by C11-bodipy 581/591 and flow cytometry
Procedure: as §2

NRCMs [6] = test: Calcium staining with Calbryte 520 AM; format: cell-based, rat; details: 0.5 and 1 h; 10 µM afatinib, 10 µM sorafenib, 5.62 µM ponatinib
[7] = in vivo; cited from earlier work
patients = details: ref Table S1, 2, 4, 26–36; cited from earlier work
Cor.4U hiPSC-CMs [8] = test: 3'DGE-UMI RNAseq transcriptome of hiPSC-CMs; details: high PC1 loadings; ponatinib at high dose
[9] = Sprague-Dawley, rat, 24 h, 10 µM

CN(C)C/C=C/C(=O)Nc1cc2c(Nc3ccc(F)c(Cl)c3)ncnc2cc1O[C@H]1CCOC1 [afatinib]
EC50 on cells relative to Cmax in vivo (Cor.4U hiPSC-CMs [1]): ~ 60 folds | effect on ATP levels (Cor.4U hiPSC-CMs [1]; 0.32 to 10 µM, day 1 to day 5): dose-dependent and time-dependent reduction in ATP levels | dose-dependent toxicity (ATP fold changes) (Cor.4U hiPSC-CMs [1]; day 1, different doses, RNAseq conditions): dose-dependent toxicity | time-dependent toxicity (ATP fold changes) (Cor.4U hiPSC-CMs [1]; fixed dose over 5 days, RNAseq conditions): increasing toxicity with treatment duration | effect on beat rate, contraction, base impedance and corrected field potential duration (HELP hiPSC-CMs): reduced beat rate and corrected field potential duration | basal oxygen consumption rate (OCR) (NRCMs [2]): trend of inhibiting basal oxygen consumption rate (OCR) | temporal activation of ER stress genes, 72 versus 24 h (ER stress genes in NRCMs; afatinib 5.62 µM, sorafenib 3.16 μM, ponatinib 1.78 μM): higher expression of Atf4, but a lower expression of Xbp1s and Atf6 at 72- than 24-h treatment | relative activation of the three UPR branches (ER stress genes in NRCMs; high-dose treatment, 24 h): activated the ATF4 axis more robustly than the XBP1s and the ATF6 axes | duration of activated eIF2α phosphorylation [3]: 12 h | increase in percent of ROS-high cells (NRCMs [4]): 14.1% | change in percent of cells with high lipid peroxidation (NRCMs [5]): increased slightly | level of lipid peroxidation, TKI alone (NRCMs [5]; [9]): 92.5% | level of lipid peroxidation, TKI with trolox (NRCMs [5]; [9]): 83% | cytosolic calcium concentration (NRCMs [6]): did not cause any significant changes in calcium concentration | Cmax [7]: 50 nM | level of cardiotoxicity based on literature reports (patients): low cardiotoxicity | expression of genes associated with ER stress (ATF4, NUPR1, DDIT3, TRIB3, CHAC1, SESN2, HERPUD1) (Cor.4U hiPSC-CMs [8]): upregulated | expression of genes related to cardiomyopathy and sarcomeric structure (MYH7, SYNPO2L, LDB3, ACTN2, MYLK3) (Cor.4U hiPSC-CMs [8]): downregulated
